# Measured values as given in US7253318B2, “Benzyloxy derivatives as MAOB inhibitors” (Hoffman-La Roche Inc., priority 2004, dated 2007).
# Key:
# human MAO-B = target: T1, human MAO-B (Homo sapiens, UniProt P27338); assay: MAO-B enzymatic activity, spectrophotometric assay (Amplex Red, tyramine substrate) on membranes of transfected EBNA cells; format: biochemical; conditions: membranes of EBNA cells transfected with human MAO-B cDNA, 30 min preincubation at 37° C., pH 7.4
# T1 construct: expressed in transfected cells; host or cells: EBNA cells (transient transfection), membrane preparation
# T1 sequence (P27338 1-520): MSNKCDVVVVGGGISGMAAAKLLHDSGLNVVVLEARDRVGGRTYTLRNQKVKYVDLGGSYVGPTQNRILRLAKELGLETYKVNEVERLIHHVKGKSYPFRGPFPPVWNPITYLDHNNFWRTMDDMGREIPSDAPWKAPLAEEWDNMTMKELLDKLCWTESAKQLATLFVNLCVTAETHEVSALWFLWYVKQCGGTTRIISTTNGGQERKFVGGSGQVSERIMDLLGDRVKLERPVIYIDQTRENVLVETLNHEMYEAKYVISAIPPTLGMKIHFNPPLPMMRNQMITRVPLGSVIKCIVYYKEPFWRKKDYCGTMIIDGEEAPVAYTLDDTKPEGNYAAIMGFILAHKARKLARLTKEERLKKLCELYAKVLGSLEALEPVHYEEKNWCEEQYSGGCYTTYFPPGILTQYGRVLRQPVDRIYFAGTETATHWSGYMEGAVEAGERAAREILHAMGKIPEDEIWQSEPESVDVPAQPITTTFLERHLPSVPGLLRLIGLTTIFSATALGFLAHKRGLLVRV
# Procedure: (§1) The cDNA's encoding human MAO-A and MAO-B were transiently transfected into EBNA cells using the procedure described by Schlaeger and Christensen [Cytotechnology 15:1-13 (1998)]. After transfection, cells were homogenised by means of a Polytron homogenizer in 20 mM Tris HCl buffer, pH 8.0, containing 0.5 mM EGTA and 0.5 mM phenylmethanesulfonyl fluoride. Cell membranes were obtained by centrifugation at 45,000×g and, after two rinsing steps with 20 mM Tris HCl buffer, pH 8.0, containing 0.5 mM EGTA, membranes were eventually re-suspended in the above buffer and aliquots stored at −80° C. until use.
# (§2) MAO-A and MAO-B enzymatic activity was assayed in 96-well-plates using a spectrophotometric assay adapted from the method described by Zhou and Panchuk-Voloshina [Analytical Biochemistry 253:169-174 (1997)]. Briefly, membrane aliquots were incubated in 0.1 M potassium phosphate buffer, pH 7.4, for 30 min at 37° C. with or without various concentrations of the compounds. After this period, the enzymatic reaction was started by the addition of the MAO substrate tyramine together with 1 U/ml horse-radish peroxidase (Roche Biochemicals) and 80 μM N-acetyl-3,7,-dihydroxyphenoxazine (Amplex Red, Molecular Probes). The samples were further incubated for 30 min at 37° C. in a final volume of 200 μl and absorbance was then determined at a wavelength of 570 nm using a SpectraMax plate reader (Molecular Devices). Background (non-specific) absorbance was determined in the presence of 10 μM clorgyline for MAO-A or 10 μM L-deprenyl for MAO-B.
# (§3) IC50 values were determined from inhibition curves obtained using nine inhibitor concentrations in duplicate, by fitting data to a four parameter logistic equation using a computer program.
# human MAO-A = target: T2, human MAO-A (Homo sapiens, UniProt P21397); assay: MAO-A enzymatic activity, spectrophotometric assay (Amplex Red, tyramine substrate) on membranes of transfected EBNA cells; format: biochemical; conditions: membranes of EBNA cells transfected with human MAO-A cDNA, 30 min preincubation at 37° C., pH 7.4
# T2 construct: expressed in transfected cells; host or cells: EBNA cells (transient transfection), membrane preparation
# T2 sequence (P21397 1-527): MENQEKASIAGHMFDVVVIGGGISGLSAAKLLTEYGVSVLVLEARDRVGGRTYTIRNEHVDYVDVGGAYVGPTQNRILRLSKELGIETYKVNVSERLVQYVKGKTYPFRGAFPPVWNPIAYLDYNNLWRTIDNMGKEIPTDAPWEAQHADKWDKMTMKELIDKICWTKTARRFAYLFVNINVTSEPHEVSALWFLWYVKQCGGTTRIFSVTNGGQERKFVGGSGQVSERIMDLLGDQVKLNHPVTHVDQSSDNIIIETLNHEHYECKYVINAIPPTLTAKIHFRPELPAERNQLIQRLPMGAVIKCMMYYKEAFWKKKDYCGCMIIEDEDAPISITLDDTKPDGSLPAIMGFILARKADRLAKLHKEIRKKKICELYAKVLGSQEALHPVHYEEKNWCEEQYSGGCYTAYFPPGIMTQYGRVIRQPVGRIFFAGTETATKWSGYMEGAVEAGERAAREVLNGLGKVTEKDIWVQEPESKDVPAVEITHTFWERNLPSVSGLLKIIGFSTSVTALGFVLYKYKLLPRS
# Procedure: as §1, §2, §3
IC50 (human MAO-B) [µM],IC50 (human MAO-A) [µM],Compound
0.031,> 10,"CNC(=O)C(C)Oc1ccc(OCc2cccc(F)c2)cc1 (racemic) [Example 11, (RS)-2-[4-(3-Fluoro-benzyloxy)-phenoxy]-N-methyl-propionamide]"
0.015,> 10,"CNC(=O)C(C)Oc1ccc(OCc2cccc(Cl)c2)cc1 (racemic) [Example 12, (RS)-2-[4-(3-Chloro-benzyloxy)-phenoxy]-N-methyl-propionamide]"
0.031,> 10,"CNC(=O)C(C)Oc1ccc(OCc2ccc(C#N)cc2)cc1 (racemic) [Example 14, (RS)-2-[4-(4-Cyano-benzyloxy)-phenoxy]-N-methyl-propionamide]"
0.056,> 10,"CCC(Oc1ccc(OCc2cccc(F)c2)cc1)C(=O)NC (racemic) [Example 17, (RS)-2-[4-(3-Fluoro-benzyloxy)-phenoxy]-N-methyl-butyramide]"
0.028,> 10,"CCC(Oc1ccc(OCc2cccc(Cl)c2)cc1)C(=O)NC (racemic) [Example 18, (RS)-2-[4-(3-Chloro-benzyloxy)-phenoxy]-N-methyl-butyramide]"
0.074,> 10,"CCC(Oc1ccc(OCc2ccc(C#N)cc2)cc1)C(=O)NC (racemic) [Example 19, (RS)-2-[4-(4-Cyano-benzyloxy)-phenoxy]-N-methyl-butyramide]"
0.009,> 10,"CNC(=O)C(C)Oc1ccc(OCc2cccc(Cl)c2)cc1 (single isomer, unassigned) [Example 13, (S or R)-2-[4-(3-Chloro-benzyloxy)-phenoxy]-N-methyl-propionamide]"
0.052,> 10,"CNC(=O)COc1ccc(OCc2ccccc2)cc1 [Example 2, 2-(4-Benzyloxy-phenoxy)-N-methyl-acetamide]"
0.028,2.86,"CNC(=O)COc1ccc(OCc2ccc(C#N)cc2)cc1 [Example 3, 2-[4-(4-Cyano-benzyloxy)-phenoxy]-N-methyl-acetamide]"
0.012,2.44,"CNC(=O)COc1ccc(OCc2ccc(Cl)cc2)cc1 [Example 4, 2-[4-(4-Chloro-benzyloxy)-phenoxy]-N-methyl-acetamide]"
0.081,> 9,"CNC(=O)COc1ccc(OCc2ccccc2F)cc1 [Example 5, 2-[4-(2-Fluoro-benzyloxy)-phenoxy]-N-methyl-acetamide]"
0.021,> 10,"CNC(=O)COc1ccc(OCc2cccc(F)c2)cc1 [Example 6, 2-[4-(3-Fluoro-benzyloxy)-phenoxy]-N-methyl-acetamide]"
0.009,5.4,"CNC(=O)COc1ccc(OCc2ccc(F)cc2)cc1 [Example 7, 2-[4-(4-Fluoro-benzyloxy)-phenoxy]-N-methyl-acetamide]"
0.044,> 10,"NC(=O)CCOc1ccc(OCc2cccc(F)c2)cc1 [Example 23, 3-[4-(3-Fluoro-benzyloxy)-phenoxy]-propionamide]"
0.068,> 10,"NC(=O)OCCc1ccc(OCc2cccc(F)c2)cc1 [Example 24, Carbamic acid 2-[4-(3-fluoro-benzyloxy)-phenyl]-ethyl ester]"
0.051,> 10,"NC(=O)COCc1ccc(OCc2cccc(F)c2)cc1 [Example 27, 2-[4-(3-Fluoro-benzyloxy)-benzyloxy]-acetamide]"

Compound,IC50 (human MAO-B) [µM],IC50 (human MAO-A) [µM]
"CNC(=O)OCc1ccc(OCc2cccc(F)c2)cc1 [Example 26, Methyl-carbamic acid 4-(3-fluoro-benzyloxy)-benzyl ester]",0.089,> 10
